Experiments:
[1] = molecular target: T1, 5-hydroxytryptamine receptor 2C (Homo sapiens, UniProt P28335); test: Displacement of [H]-mesulergine from CHO cells expressing human 5-hydroxytryptamine 2C receptor.; assay type: cell-based
T1 sequence (P28335 whole entry): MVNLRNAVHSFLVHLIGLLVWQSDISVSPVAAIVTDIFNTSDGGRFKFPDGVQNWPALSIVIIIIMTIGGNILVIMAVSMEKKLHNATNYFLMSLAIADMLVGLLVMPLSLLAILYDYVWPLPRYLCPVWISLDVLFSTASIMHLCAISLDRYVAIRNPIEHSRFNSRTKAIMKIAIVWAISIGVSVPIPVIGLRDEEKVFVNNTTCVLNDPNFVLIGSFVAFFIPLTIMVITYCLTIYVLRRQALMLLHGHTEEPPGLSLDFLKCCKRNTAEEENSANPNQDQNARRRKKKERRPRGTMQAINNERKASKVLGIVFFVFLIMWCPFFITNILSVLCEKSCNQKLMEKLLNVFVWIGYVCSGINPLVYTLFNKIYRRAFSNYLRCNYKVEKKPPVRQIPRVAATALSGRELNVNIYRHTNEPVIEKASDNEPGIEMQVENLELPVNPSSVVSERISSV

D(2) dopamine receptor = D(2) dopamine receptor (Homo sapiens, UniProt P14416); test: biochemical
Description: Displacement of [3H]spiperone from CHO cells expressing human Dopamine receptor D2.

[2] = molecular target: 5-hydroxytryptamine receptor 2A (Homo sapiens, UniProt P28223); test: Displacement of [3H]ketanserin from CHO cells expressing human 5-hydroxytryptamine 2A receptor.; assay type: cell-based

Compound | Ki [1] | Ki (D(2) dopamine receptor) | Ki [2]
CCN(CC)CCc1c(-c2ccccc2)[nH]c2ccccc12 | 160 nM | > 1000 nM | 2.8 nM
c1ccc(-c2[nH]c3ccccc3c2CCN2CCC2)cc1 | > 1000 nM | > 1000 nM | 44 nM
C[C@@H]1CCCCN1CCc1c(-c2ccccc2)[nH]c2ccccc12 | 36 nM | 21 nM | 0.18 nM
c1ccc(-c2[nH]c3ccccc3c2CCN2CCCC2)cc1 | 260 nM | > 1000 nM | 9 nM
C[C@H]1CCCCN1CCc1c(-c2ccccc2)[nH]c2ccccc12 | 230 nM | 290 nM | 4 nM
CCN(C)CCc1c(-c2cccc([N+](=O)[O-])c2)[nH]c2ccccc12 | 36 nM | 39 nM | 0.14 nM
c1ccc(-c2[nH]c3ccccc3c2CCN2CCCCC2)cc1 | 268 nM | 896 nM | 2.6 nM
CN(C)CCc1c(-c2ccccc2)[nH]c2ccccc12 | 180 nM | > 1000 nM | 4.4 nM
CCN(C)CCc1c(-c2ccco2)[nH]c2ccccc12 | > 1000 nM | > 1000 nM | > 1000 nM

— ChEMBL document CHEMBL1132836, “2-Aryl tryptamines: selective high-affinity antagonists for the h5-HT2A receptor” (Bioorg Med Chem Lett, 2000)
